Measured values: article PMC9293227 (Clinical Pharmacology in Drug Development, 2021)
Where two headings read alike, the source gives them in different places. Blank lines part the entries; values can stand above or below the molecule they belong to.

Assays:
[1] = for AUCinf (molar ratio of 2‐hydroxy‐atorvastatin to atorvastatin) / Cmax (molar ratio of 2‐hydroxy‐atorvastatin to atorvastatin): mean (%CV); for increase in Cmax with filgotinib coadministration relative to statin alone: pravastatin 40 mg / rosuvastatin 10 mg, filgotinib 200 mg once daily
[2] = Safety assessment; type: in vivo, human (healthy adult participants); conditions: by treatment arm
[3] = no reference given, cited from earlier work
[4] = tested on: cytochrome P450 enzymes or uridine 5’‐diphospho‐glucuronosyltransferases; conditions: in vitro; cited from earlier work
[5] = cited from earlier work
[6] = tested on: JAK1; conditions: human whole blood assay; cited from earlier work
[7] = clinical trials and postmarketing surveillance; cited from earlier work
[8] = 2-hydroxy-atorvastatin after atorvastatin 40 mg alone, n = 25, median (Q1-Q3)
[9] = 2-hydroxy-atorvastatin, atorvastatin + filgotinib vs atorvastatin alone
[10] = atorvastatin 40 mg + filgotinib 200 mg once daily, n = 26
[11] = atorvastatin 40 mg alone, n = 25
[12] = atorvastatin + filgotinib vs atorvastatin alone
[13] = both, human, plasma, oral, 40 mg
[14] = both, human, plasma, oral, 10 mg
[15] = rosuvastatin + filgotinib vs rosuvastatin alone

t1/2 [1, 8]: 9.1 (7.1‐10.9) h
tmax [1, 8]: 2.0 (1.5‐4.1) h
AUCinf GLSM Ratio (90% CI) [1, 9]: 1.11 (1.02‐1.22)
AUClast GLSM Ratio (90% CI) [1, 9]: 1.12 (1.02‐1.23)
Cmax GLSM Ratio (90% CI) [1, 9]: 0.98 (0.81‐1.19)
AUCinf (molar ratio of 2‐hydroxy‐atorvastatin to atorvastatin) [1, 10]: 1.6 (26.3)
Cmax (molar ratio of 2‐hydroxy‐atorvastatin to atorvastatin) [1, 10]: 0.8 (29.3)
AUCinf (molar ratio of 2‐hydroxy‐atorvastatin to atorvastatin) [1, 11]: 1.3 (35.1)
Cmax (molar ratio of 2‐hydroxy‐atorvastatin to atorvastatin) [1, 11]: 0.7 (43.9)
AUCinf (molar ratio of 2‐hydroxy‐atorvastatin to atorvastatin) GLSM Ratio (90% CI) [1, 12]: 1.22 (1.15‐1.29)
Cmax (molar ratio of 2‐hydroxy‐atorvastatin to atorvastatin) GLSM Ratio (90% CI) [1, 12]: 1.19 (1.06‐1.33)
SMILES: CC(C)c1c(C(=O)Nc2ccccc2O)c(-c2ccccc2)c(-c2ccc(F)cc2)n1CCC(O)CC(O)CC(=O)O (stereo not shown) [2‐Hydroxy‐Atorvastatin, 2‐hydroxy‐atorvastatin]

AUC(0-inf) [1, 14]: 66 ng·h/mL
Cmax [1, 14]: 7.5 ng/mL
half-life ([1]; both, human, plasma, oral, t1/2, rosuvastatin 10 mg (cocktail) + filgotinib 200 mg once daily, n = 26, median (Q1-Q3)): 15.4 h
increase in Cmax with filgotinib coadministration relative to statin alone [1]: 68%
tmax ([1]; rosuvastatin 10 mg alone (cocktail), n = 25, median (Q1-Q3)): 3.0 (2.0‐4.0) h
AUCinf GLSM Ratio (90% CI) [1, 15]: 1.42 (1.30‐1.57)
AUClast GLSM Ratio (90% CI) [1, 15]: 1.46 (1.32‐1.62)
Cmax GLSM Ratio (90% CI) [1, 15]: 1.68 (1.43‐1.97)
SMILES: CC(C)c1nc(N(C)S(C)(=O)=O)nc(-c2ccc(F)cc2)c1/C=C/[C@@H](O)C[C@@H](O)CC(=O)O [Rosuvastatin]
myopathy related to rosuvastatin, patients [7]: ≤ 0.03%

Continued, molecule first:

SMILES: CC(C)c1c(C(=O)Nc2ccccc2)c(-c2ccccc2)c(-c2ccc(F)cc2)n1CC[C@@H](O)C[C@@H](O)CC(=O)O [Atorvastatin]
participants with treatment‐emergent AE related to study drug, n (%) [2]: 3 (11.5%)
headache, n [%] ([2]; all mild or moderate): 2 [7.7%]

SMILES: O=C(Nc1nc2cccc(-c3ccc(CN4CCS(=O)(=O)CC4)cc3)n2n1)C1CC1 [Filgotinib]
participants with treatment‐emergent AE related to study drug, n (%) [2]: 8 (30.8%)
headache, n [%] ([2]; all mild or moderate): 5 [19.2%]
nausea, n [%] ([2]; all mild or moderate): 3 [11.5%]
accumulation in plasma following multiple once-daily dosing of filgotinib [3]: does not accumulate
interaction with cytochrome P450 enzymes or UGTs [4]: do not interact
effect on QT interval [5]: not affect QT interval

SMILES: Nc1nc2cccc(-c3ccc(CN4CCS(=O)(=O)CC4)cc3)n2n1 [GS‐829845]
time to achieve steady-state plasma concentrations ([3]; multiple once-daily dosing of filgotinib): ≈ 4 days
accumulation in plasma following multiple once-daily dosing of filgotinib [3]: approximately 2 fold
reduced potency relative to filgotinib [6]: ≈ 10 fold
interaction with cytochrome P450 enzymes or UGTs [4]: do not interact
effect on QT interval [5]: not affect QT interval

SMILES: CC[C@H](C)C(=O)O[C@H]1C[C@H](O)C=C2C=C[C@H](C)[C@H](CC[C@@H](O)C[C@@H](O)CC(=O)O)[C@H]21 [Pravastatin]
AUC(0-inf) [1, 13]: 201 ng·h/mL
AUC(0-t) [1, 13]: 200 ng·h/mL
tmax [1, 13]: 1 h
half-life ([1]; both, human, plasma, oral, t1/2, pravastatin 40 mg (cocktail) + filgotinib 200 mg once daily, n = 26, mean (standard deviation)): 6.57 h
half-life ([1]; both, human, plasma, oral, t1/2, pravastatin 40 mg (cocktail) + filgotinib 200 mg once daily, n = 26, median (Q1-Q3)): 5.6 h
increase in Cmax with filgotinib coadministration relative to statin alone [1]: 25%
AUClast GLSM Ratio (90% CI) ([1]; pravastatin + filgotinib vs pravastatin alone): 1.22 (1.05‐1.41)
